{"source": "paper PMC10710878", "about": "(Journal of receptor and signal transduction research, 2022)", "key": {"α2A-AR": {"molecular_target": "T1, α2A-AR (Rattus norvegicus, UniProt P22909)", "T1 sequence (P22909 1-465)": "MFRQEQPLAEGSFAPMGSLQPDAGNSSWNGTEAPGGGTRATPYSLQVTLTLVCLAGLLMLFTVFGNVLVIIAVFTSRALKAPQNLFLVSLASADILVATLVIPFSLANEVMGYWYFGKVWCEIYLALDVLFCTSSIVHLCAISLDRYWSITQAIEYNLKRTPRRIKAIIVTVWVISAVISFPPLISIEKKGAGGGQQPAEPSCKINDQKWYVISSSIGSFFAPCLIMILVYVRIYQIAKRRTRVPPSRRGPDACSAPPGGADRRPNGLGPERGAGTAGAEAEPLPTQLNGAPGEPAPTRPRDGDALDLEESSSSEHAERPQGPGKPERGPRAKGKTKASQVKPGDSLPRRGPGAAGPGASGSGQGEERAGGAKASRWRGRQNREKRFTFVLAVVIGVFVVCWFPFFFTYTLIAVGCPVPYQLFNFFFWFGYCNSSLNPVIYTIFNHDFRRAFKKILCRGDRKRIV", "format": "cell-based", "details": "for pKb (equilibrium dissociation constant, Schild x-intercept): antagonizing EPI-induced reduction of epileptiform burst discharges"}, "[1]": {"tested_on": "human α2A-AR versus α2B- or α2C-AR", "details": "published EC50 for cloned human α2-ARs, ref Table S3; cited from earlier work"}, "pyramidal cells": {"tested_on": "pyramidal cells", "details": "modulation of α2A-AR, data not shown"}, "human 5-HT1A": {"tested_on": "human 5-HT1A", "details": "published pEC50, ref Table S3; cited from earlier work"}}, "note": "Where a name gives a salt, the structure may show the parent alone. Read-outs that look alike come from different tables or passages of the source."}
{"smiles": "CCS(=O)(=O)N1CCC[C@@H]2CN3CCc4cc(OC)ccc4[C@@H]3C[C@@H]21", "note": "[RS-79948]", "values": [{"measurement": "parallel rightward shift of the control EPI concentration-response curve", "setting": "α2A-AR; 3 nM RS-79948", "result": 4, "unit": "fold"}, {"measurement": "parallel rightward shift of the control EPI concentration-response curve", "setting": "α2A-AR; 10 nM RS-79948", "result": 13, "unit": "fold"}, {"measurement": "parallel rightward shift of the control EPI concentration-response curve", "setting": "α2A-AR; 30 nM RS-79948", "result": 34, "unit": "fold"}, {"measurement": "pKb (equilibrium dissociation constant, Schild x-intercept)", "setting": "α2A-AR", "result": "9.00 ± 0.16"}, {"measurement": "Schild regression slope", "setting": "α2A-AR; dose ratios of EPI EC50", "result": "0.95 ± 0.11"}]}
{"smiles": "CCC1(C2=NCCN2)Cc2ccccc2O1", "note": "(centres unmarked) [efaroxan, efaroxan hydrochloride]", "values": [{"measurement": "Kb", "setting": "α2A-AR", "result": 3.72, "unit": "nM"}]}
{"smiles": "CC1c2ccccc2CN1CC1=NCCN1", "note": "(centres unmarked) [BRL-44408]", "values": [{"measurement": "pKb (equilibrium dissociation constant, Schild x-intercept)", "setting": "α2A-AR", "result": 7.81}]}
{"smiles": "CN1CC[C@]2(CCN3CCc4c(oc5ccccc45)[C@@H]3C2)N(C)C1=O", "note": "[MK-912]", "values": [{"measurement": "pKb (equilibrium dissociation constant, Schild x-intercept)", "setting": "α2A-AR", "result": 8.32}]}
{"smiles": "CN1CCN(c2ccc(Nc3c4ccccc4nc4ccccc34)cc2)CC1", "note": "[JP-1302]", "values": [{"measurement": "pKb (equilibrium dissociation constant, Schild x-intercept)", "setting": "α2A-AR", "result": 5.23}]}
{"smiles": "Cc1cccc([C@H](C)c2cnc[nH]2)c1C", "note": "[dexmedetomidine, dexmedetomidine hydrochloride]", "values": [{"measurement": "α2-AR subtype selectivity in words", "setting": "[1]", "result": "no subtype selectivity"}]}
{"smiles": "CNC[C@H](O)c1ccc(O)c(O)c1", "note": "[EPI, epinephrine]", "values": [{"measurement": "hyperpolarization of pyramidal cells", "setting": "pyramidal cells", "result": "does not hyperpolarize pyramidal cells"}]}
{"smiles": "COc1cccc(OC)c1OCCNCC1COc2ccccc2O1", "note": "(centres unmarked) [WB-4101]", "values": [{"measurement": "pKb (equilibrium dissociation constant, Schild x-intercept)", "setting": "α2A-AR", "result": 7.34}]}
{"smiles": "N=C(N)N/N=C/c1c(Cl)cccc1Cl", "note": "[guanabenz, guanabenz acetate]", "values": [{"measurement": "Kb", "setting": "α2A-AR", "result": 39.8, "unit": "nM"}]}
{"smiles": "Brc1c(NC2=NCCN2)ccc2nccnc12", "note": "[UK-14304]", "values": [{"measurement": "greater potency at α2A-ARs than α2B- or α2C-ARs", "setting": "[1]", "result": 10, "unit": "fold"}, {"measurement": "lower potency towards 5-HT1A compared with the α2A-AR", "setting": "human 5-HT1A", "result": "1,000 fold"}]}
{"smiles": "COC1(C2=NCCN2)COc2ccccc2O1", "note": "(centres unmarked) [RX-821002]", "values": [{"measurement": "pKb (equilibrium dissociation constant, Schild x-intercept)", "setting": "α2A-AR", "result": 8.87}]}
{"smiles": "COc1ccccc1N1CCN(CCN2C(=O)c3ccccc3C(C)(C)C2=O)CC1", "note": "[ARC-239]", "values": [{"measurement": "pKb (equilibrium dissociation constant, Schild x-intercept)", "setting": "α2A-AR", "result": 6.14}]}
